# Laboratory results from US20230151336A1, “STEM CELL DERIVED SINGLE-ROSETTE BRAIN ORGANOIDS AND RELATED USES THEROF” (The Regents of the University of Michigan, priority 2020, published 2023).
# Experiments:
# Type in all cases: cell-based, human
# [1] = system: self-organizing single-rosette spheroids (SOSRS); assay: SOSRS neuroteratogen screening (structural read-out of lumen/neurulation)
# Experimental: iPSC lines were passaged using Accutase (Innovative cell) and replated onto Geltrex-coated (1:50 dilution in DMEM/F12) 12-well plates at 1.5-2×10^5 cells/well in mTeSR1 with 10 μM rho-kinase inhibitor (Y-27632; Tocris, 1254). The medium without the inhibitor was replaced daily until the cells reach 80-100% confluency. The medium was then changed to 3N (50:50 DMEM/F12:neurobasal with N2 and B27 supplements) (see, Shi, Y., et al., Nature Neuroscience 15, 477-486 (2012)) without vitamin A with 2 μM DMH1 (Tocris, 4126), 2 μM XAV939 (Cayman Chemical, 13596), and 10 μM SB431542 (Cayman Chemical, 13031) (4 mL of medium per well). 75% of this medium was changed daily with 1 μM cyclopamine (Cayman Chemical, 11321) added beginning on day 1. On day 4, the monolayer was cut into squares using the StemPro EZ passage tool. The squares were then washed once with PBS and incubated for 2 minutes with L7 hPSC passaging solution (Lonza). After aspirating the L7 solution, the squares were sprayed off the bottom with the same culture medium 1 mL of preconditioned culture media with a P1000 micropipette. An additional 2 mL of fresh culture medium with the 4 inhibitors was added for a final volume of 3 mL. Approximately 200 μL of resuspended squares were then transfer into the wells of 96-well plates preincubated at 37° C. for 20 minutes with 30 μL of 100% Geltrex solution in each well. Up to 16 wells can be made using one monolayer well. Higher densities will result in fusion between nearby SOSRS forming multi-rosette doublets or “strings”. After 48 hours, daily 50% media changes were performed. On day 6 overall (2 days after cutting), the four inhibitors were no longer added but replaced with the 3 μM CHIR99021. After 3-4 additional days of culture, the wells were washed once with PBS and incubated for 2 minutes with L7 solution. The organoids were individually removed using the STRIPPER (Cooper Surgical) with 275 μM tips and plated individually in the wells of a low-adherence U-bottom 96-well plate with 200 μL of 3N medium without vitamin A with 3 μM CHIR99021, BDNF (20 ng/mL), and NT3 (20 ng/mL). Ideal diameters for picking the SOSRS are between 250-300 μM. Two days later half-fold media changes with 3N with vitamin A, BDNF (20 ng/mL), and NT3 (20 ng/mL) and repeated every other day. After 35 days of differentiation, 3N media with vitamin A without neurotrophic factors (BDNF and NT3) is used for half-fold media changes every other day. Around this time, SOSRS are transferred from the low-adherence 96-well plate to a low-adherence 24 well plate for a necessary increase in media volume due to SOSRS size.
# (§1) SOSRS imaged before day 11 were grown on Nunc™ Lab-Tek™ III 8-well chamber slides (Thermo Scientific) and were fixed in paraformaldehyde for 30 min at room temperature (RT). After permeabilization with 0.2% Triton-X 100 for 20 min at RT, cells were incubated in PBS containing 5% normal goat serum with 1% BSA and 0.05% Triton-X100 for 1 h at RT. Older SOSRS were fixed for 30 minutes in suspension and incubated in 30% sucrose overnight at 4 C followed by embedding in TFM medium and freezing on dry ice. The blocks were sectioned on a Cryostat with 20 μM section thickness. All samples were incubated in primary antibody overnight (see Supplemental Table 2 for antibodies and dilutions) in the same blocking buffer at 4° C., washed 4 times in PBS with 0.05% Tween-20 (PBST), and incubated for 90 min with secondary antibody. Cells were washed 3 times in PBST and incubated with bisbenzimide for 5 min. After additional PBS washes, coverslips were mounted on slides with Glycergel mounting medium (Agilent Dako). Images were obtained on a Leica SP5 upright DMI 6000 confocal microscope.
# This 3D model of human neurulation allowed us to test known neuroteratogens that block a specific pathway necessary for proper neural tube formation. These were the rho-kinase inhibitor, Y-27632, and the non-muscle myosin inhibitor, blebbistatin^26, 27. […]
# [2] = system: self-organizing single-rosette spheroids (SOSRS); assay: SOSRS cell death and growth during dorsal differentiation
# Experimental: iPSC lines were passaged using Accutase (Innovative cell) and replated onto Geltrex-coated (1:50 dilution in DMEM/F12) 12-well plates at 1.5-2×10^5 cells/well in mTeSR1 with 10 μM rho-kinase inhibitor (Y-27632; Tocris, 1254). The medium without the inhibitor was replaced daily until the cells reach 80-100% confluency. The medium was then changed to 3N (50:50 DMEM/F12:neurobasal with N2 and B27 supplements) (see, Shi, Y., et al., Nature Neuroscience 15, 477-486 (2012)) without vitamin A with 2 μM DMH1 (Tocris, 4126), 2 μM XAV939 (Cayman Chemical, 13596), and 10 μM SB431542 (Cayman Chemical, 13031) (4 mL of medium per well). 75% of this medium was changed daily with 1 μM cyclopamine (Cayman Chemical, 11321) added beginning on day 1. On day 4, the monolayer was cut into squares using the StemPro EZ passage tool. The squares were then washed once with PBS and incubated for 2 minutes with L7 hPSC passaging solution (Lonza). After aspirating the L7 solution, the squares were sprayed off the bottom with the same culture medium 1 mL of preconditioned culture media with a P1000 micropipette. An additional 2 mL of fresh culture medium with the 4 inhibitors was added for a final volume of 3 mL. Approximately 200 μL of resuspended squares were then transfer into the wells of 96-well plates preincubated at 37° C. for 20 minutes with 30 μL of 100% Geltrex solution in each well. Up to 16 wells can be made using one monolayer well. Higher densities will result in fusion between nearby SOSRS forming multi-rosette doublets or “strings”. After 48 hours, daily 50% media changes were performed. On day 6 overall (2 days after cutting), the four inhibitors were no longer added but replaced with the 3 μM CHIR99021. After 3-4 additional days of culture, the wells were washed once with PBS and incubated for 2 minutes with L7 solution. The organoids were individually removed using the STRIPPER (Cooper Surgical) with 275 μM tips and plated individually in the wells of a low-adherence U-bottom 96-well plate with 200 μL of 3N medium without vitamin A with 3 μM CHIR99021, BDNF (20 ng/mL), and NT3 (20 ng/mL). […]
# ventral SOSRS = assay: Ventral SOSRS patterning (immunostaining, size)
# Experimental: For ventral SOSRS differentiation, no cyclopamine or CHIR99021 were used. After plating onto Geltrex, 1 μM SAG and 2 μM XAV939 were added the culture media for 1 week. All other procedures were performed identically (FIG. 5).
# as §1, with “microscope. […]” for “microscope.”
# [3] = addition from day 6-10, 3 μM, FIG. 2
compound,measurement,setting,value
CC(/C=C/C(=O)NO)=C\[C@@H](C)C(=O)c1ccc(N(C)C)cc1 [TSA],replication of the VPA effect on ratio of lumen area to SOSRS area,[1],not replicated
Cc1c[nH]c(-c2cnc(NCCNc3ccc(C#N)cn3)nc2-c2ccc(Cl)cc2Cl)n1 [CHIR99021],SOSRS growth,[2]; [3],grow more rapidly
same,cell death around SOSRS perimeter,[2]; [3],blocked the majority of cell death
same,PAX6 positive cells,"[2]; pulse day 6-10, FIGS. 1i and j",rapid expansion
Cc1ccc2c(c1)C(=O)C1(O)CCN(c3ccccc3)C1=N2 (stereo not drawn) [blebbistatin],apical end-feet surface areas (ZO-1),[1],increased
same,lumen circularity,[1],decreased
same,lumen/total area,[1],increased
C[C@@H](N)[C@H]1CC[C@H](C(=O)Nc2ccncc2)CC1 [Y-27632],apical end-feet surface areas (ZO-1),[1],increased
same,lumen circularity,[1],decreased
same,lumen/total area,[1],increased
"Oc1nc(-c2ccc(C(F)(F)F)cc2)nc2c1CSCC2 [XAV939, 3,5,7,8-Tetrahydro-2-[4-(trifluoromethyl)phenyl]-4H-thiopyrano[4,3-d]pyri-midin-4-one]",SOSRS size and MGE specification,"ventral SOSRS; continued day 7 to day 14 with SAG, data not shown",increase
CNC1CCC(N(Cc2cccc(-c3ccncc3)c2)C(=O)c2sc3ccccc3c2Cl)CC1 (stereo not drawn) [SAG],NKX2.1/FOXG1 positive cells,"ventral SOSRS; one-month SOSRS, SAG instead of CHIR99021 from day 7 to day 14, XAV939 continued",~100%
